# “And” between values parts separate entries of the source, which are not always exact repeats. Equal entries are not always repeated. Toxic doses and inconclusive results are not listed.
# System: L1210 leukemia ip in BDF1 mice, survival T/C
# Experiment: NCI In Vivo Anticancer Drug Screen. Data for tumor model L1210 Leukemia (intraperitoneal) in B6D2F1 (BDF1) mice
# Conditions: endpoint: mean survival time, higher = longer survival
# Method in brief: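 Value reflects the ratio of survival in compound-treated mice to survival in vehicle-treated controls, with both groups carrying the same transplanted tumor.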
# [1] = dose: 100.0 mg/kg/injection, schedule: Q01DX009 (ip), vehicle: saline with Tween-80
# [2] = dose: 200.0 mg/kg/injection, schedule: Q01DX009 (ip), vehicle: saline with Tween-80
# [3] = dose: 400.0 mg/kg/injection, schedule: Q01DX009 (ip), vehicle: saline with Tween-80
# [4] = dose: 100.0 mg/kg/injection, schedule: Q01DX001 (ip), vehicle: saline
# [5] = dose: 200.0 mg/kg/injection, schedule: Q01DX001 (ip), vehicle: saline
# [6] = dose: 400.0 mg/kg/injection, schedule: Q01DX001 (ip), vehicle: saline
# [7] = dose: 75.0 mg/kg/injection, schedule: Q01DX001 (ip), vehicle: saline
# [8] = dose: 150.0 mg/kg/injection, schedule: Q01DX001 (ip), vehicle: saline
# [9] = dose: 300.0 mg/kg/injection, schedule: Q01DX001 (ip), vehicle: saline
# [10] = dose: 100.0 mg/kg/injection, schedule: Q04DX003 (ip), vehicle: saline
# [11] = dose: 100.0 mg/kg/injection, schedule: Q01DX001 (ip), vehicle: carboxymethylcellulose (CMC)
# [12] = dose: 200.0 mg/kg/injection, schedule: Q01DX001 (ip), vehicle: carboxymethylcellulose (CMC)
# [13] = dose: 400.0 mg/kg/injection, schedule: Q01DX001 (ip), vehicle: carboxymethylcellulose (CMC)
# [14] = dose: 50.0 mg/kg/injection, schedule: Q01DX001 (ip), vehicle: saline
# [15] = dose: 100.0 mg/kg/injection, schedule: Q01DX001 (ip), vehicle: saline with Tween-80
# [16] = dose: 100.0 mg/kg/injection, schedule: Q04DX003 (ip), vehicle: saline with Tween-80
# [17] = dose: 400.0 mg/kg/injection, schedule: Q01DX001 (ip), vehicle: saline with Tween-80
# [18] = dose: 400.0 mg/kg/injection, schedule: Q04DX003 (ip), vehicle: saline with Tween-80
# [19] = dose: 200.0 mg/kg/injection, schedule: Q04DX003 (ip), vehicle: saline with Tween-80
# [20] = dose: 100.0 mg/kg/injection, schedule: Q01DX001 (ip), vehicle: other
# [21] = dose: 200.0 mg/kg/injection, schedule: Q04DX003 (ip), vehicle: saline
# [22] = dose: 400.0 mg/kg/injection, schedule: Q04DX003 (ip), vehicle: saline
compound,measurement,setting,value
COc1ccc(S(=O)(=O)Nc2cc(Cl)ccc2Cl)cc1,T/C,[1],92 % of control
same,T/C,[2],103 % of control
same,T/C,[3],95 % of control
CC(C)(CO)N=Cc1ccccc1Cl,T/C,[4],102 % of control
same,T/C,[5],100 % of control
same,T/C,[6],100 % of control
NCC(O)C(O)C(O)C(O)CO (stereo unspecified),T/C,[4],103 % of control
same,T/C,[5],95 % of control
O=C(CCl)Nc1cc2ccccc2c2ccccc12,T/C,[7],88 % of control
same,T/C,[8],91 % of control
same,T/C,[9],96 % of control
Cc1cc(C)c(C(=O)CCN(C)C)c(C)c1,T/C,"dose: 25.0 mg/kg/injection, schedule: Q01DX009 (ip), vehicle: saline",103 % of control
same,T/C,"dose: 25.0 mg/kg/injection, schedule: Q04DX003 (ip), vehicle: saline",93 % of control
same,T/C,"dose: 50.0 mg/kg/injection, schedule: Q01DX009 (ip), vehicle: saline",96 % of control
same,T/C,"dose: 50.0 mg/kg/injection, schedule: Q04DX003 (ip), vehicle: saline",96 % of control
same,T/C,[10],93 % of control and 104 % of control
CC(=O)N(c1ccccc1)c1ccc([N+](=O)[O-])cc1[N+](=O)[O-],T/C,[11],107 % of control
same,T/C,"dose: 177.0 mg/kg/injection, schedule: Q01DX001 (ip), vehicle: carboxymethylcellulose (CMC)",94 % of control and 115 % of control
same,T/C,[12],96 % of control
same,T/C,"dose: 266.0 mg/kg/injection, schedule: Q01DX001 (ip), vehicle: carboxymethylcellulose (CMC)",97 % of control and 103 % of control
same,T/C,[13],97 % of control and 100 % of control
same,T/C,"dose: 600.0 mg/kg/injection, schedule: Q01DX001 (ip), vehicle: carboxymethylcellulose (CMC)",100 % of control and 105 % of control
OCCNC(c1ccc(Cl)cc1)C(O)c1ccc(Cl)cc1 (stereo unspecified),T/C,[14],98 % of control
same,T/C,[4],98 % of control
same,T/C,[5],98 % of control
CCC1(C)CC(=O)NC(=O)C1.[Tl],T/C,"dose: 3.12 mg/kg/injection, schedule: Q01DX009 (ip), vehicle: water",100 % of control
same,T/C,"dose: 3.12 mg/kg/injection, schedule: Q04DX003 (ip), vehicle: water",97 % of control
same,T/C,"dose: 6.25 mg/kg/injection, schedule: Q01DX009 (ip), vehicle: water",97 % of control
same,T/C,"dose: 6.25 mg/kg/injection, schedule: Q04DX003 (ip), vehicle: water",100 % of control
same,T/C,"dose: 12.5 mg/kg/injection, schedule: Q04DX003 (ip), vehicle: water",105 % of control
CCc1ccc(NC(=S)NC(=O)/C=C/c2ccccc2)cc1,T/C,[15],92 % of control
same,T/C,[1],99 % of control and 102 % of control
same,T/C,"dose: 100.0 mg/kg/injection, schedule: Q04DX002 (ip), vehicle: alcohol",114 % of control
same,T/C,[16],92 % of control
same,T/C,"dose: 200.0 mg/kg/injection, schedule: Q01DX001 (ip), vehicle: saline with Tween-80",87 % of control
same,T/C,[2],92 % of control and 96 % of control
same,T/C,"dose: 200.0 mg/kg/injection, schedule: Q04DX002 (ip), vehicle: alcohol",90 % of control
same,T/C,[17],89 % of control
same,T/C,[3],96 % of control and 105 % of control
same,T/C,"dose: 400.0 mg/kg/injection, schedule: Q04DX002 (ip), vehicle: alcohol",97 % of control
same,T/C,[18],87 % of control
COC(=O)c1ccccc1OC(=S)N(C)C,T/C,[16],113 % of control
same,T/C,[19],103 % of control
same,T/C,[18],114 % of control
CC1(C)CN(Cc2ccc(Cl)cc2)C1=O,T/C,"dose: 44.0 mg/kg/injection, schedule: Q01DX001 (ip), vehicle: other",97 % of control
same,T/C,"dose: 44.0 mg/kg/injection, schedule: Q01DX009 (ip), vehicle: saline with Tween-80",90 % of control
same,T/C,"dose: 44.0 mg/kg/injection, schedule: Q04DX003 (ip), vehicle: other",96 % of control
same,T/C,"dose: 50.0 mg/kg/injection, schedule: Q04DX002 (ip), vehicle: other",154 % of control
same,T/C,"dose: 66.0 mg/kg/injection, schedule: Q01DX001 (ip), vehicle: other",100 % of control
same,T/C,"dose: 66.0 mg/kg/injection, schedule: Q01DX009 (ip), vehicle: saline with Tween-80",89 % of control
same,T/C,"dose: 66.0 mg/kg/injection, schedule: Q04DX003 (ip), vehicle: other",101 % of control
same,T/C,[20],96 % of control
same,T/C,[1],91 % of control
same,T/C,"dose: 100.0 mg/kg/injection, schedule: Q04DX002 (ip), vehicle: other",92 % of control and 113 % of control
same,T/C,"dose: 100.0 mg/kg/injection, schedule: Q04DX003 (ip), vehicle: other",100 % of control
same,T/C,"dose: 150.0 mg/kg/injection, schedule: Q01DX001 (ip), vehicle: other",98 % of control
same,T/C,"dose: 150.0 mg/kg/injection, schedule: Q01DX009 (ip), vehicle: saline with Tween-80",92 % of control
same,T/C,"dose: 150.0 mg/kg/injection, schedule: Q04DX003 (ip), vehicle: other",103 % of control
same,T/C,"dose: 225.0 mg/kg/injection, schedule: Q01DX001 (ip), vehicle: other",100 % of control
same,T/C,"dose: 225.0 mg/kg/injection, schedule: Q01DX009 (ip), vehicle: saline with Tween-80",93 % of control
same,T/C,"dose: 225.0 mg/kg/injection, schedule: Q04DX003 (ip), vehicle: other",96 % of control
same,T/C,"dose: 400.0 mg/kg/injection, schedule: Q04DX002 (ip), vehicle: other",95 % of control and 103 % of control
O=C(CCCC(=O)N/N=C/c1cccc(Cl)c1)N/N=C\c1cccc(Cl)c1,T/C,"dose: 50.0 mg/kg/injection, schedule: Q01DX001 (ip), vehicle: other",90 % of control
same,T/C,[20],93 % of control
same,T/C,"dose: 400.0 mg/kg/injection, schedule: Q01DX001 (ip), vehicle: other",88 % of control
CC1=CC(=C2C=C(C)C(=O)C(C)=C2)C=C(C)C1=O,T/C,[15],87 % of control
same,T/C,[16],94 % of control and 102 % of control
same,T/C,[19],94 % of control and 96 % of control
same,T/C,[17],87 % of control
same,T/C,[18],94 % of control and 89 % of control
CS(=O)(=O)OCCN=C(N)N[N+](=O)[O-],T/C,"dose: 20.0 mg/kg/injection, schedule: Q04DX003 (ip), vehicle: Klucel (hydroxypropylcellulose) (HPC)",95 % of control
same,T/C,"dose: 40.0 mg/kg/injection, schedule: Q04DX003 (ip), vehicle: Klucel (hydroxypropylcellulose) (HPC)",95 % of control
same,T/C,"dose: 80.0 mg/kg/injection, schedule: Q04DX003 (ip), vehicle: Klucel (hydroxypropylcellulose) (HPC)",97 % of control
same,T/C,"dose: 100.0 mg/kg/injection, schedule: Q04DX003 (ip), vehicle: Klucel (hydroxypropylcellulose) (HPC)",105 % of control
O=C(O)CCNCC(=O)O,T/C,[7],100 % of control
same,T/C,[8],100 % of control
same,T/C,[9],101 % of control
CC(S)c1ccc2c(c1)Cc1ccccc1-2 (stereo unspecified),T/C,[11],101 % of control
same,T/C,[12],101 % of control
same,T/C,[13],104 % of control
c1ccc2c(OCCN3CC3)nccc2c1,T/C,[11],103 % of control
same,T/C,[12],113 % of control
Nc1ccc(OCCCc2c(-c3ccccc3)nc(N)[nH]c2=O)cc1,T/C,[14],93 % of control
same,T/C,[4],96 % of control
same,T/C,[10],100 % of control
same,T/C,[5],102 % of control
same,T/C,[21],96 % of control
same,T/C,[6],102 % of control
same,T/C,[22],90 % of control
CCSc1nc2c([nH]1)c(=S)n(C)c(=O)n2C,T/C,[4],96 % of control
same,T/C,"dose: 100.0 mg/kg/injection, schedule: Q01DX009 (ip), vehicle: saline",100 % of control
same,T/C,[10],109 % of control
same,T/C,[5],112 % of control
same,T/C,"dose: 200.0 mg/kg/injection, schedule: Q01DX009 (ip), vehicle: saline",89 % of control
same,T/C,[21],98 % of control
same,T/C,[6],95 % of control
same,T/C,"dose: 400.0 mg/kg/injection, schedule: Q01DX009 (ip), vehicle: saline",103 % of control
same,T/C,[22],98 % of control
O=C(CNC(=O)c1ccccc1)c1ccccc1,T/C,"dose: 100.0 mg/kg/injection, schedule: Q04DX002 (ip), vehicle: Klucel (hydroxypropylcellulose) (HPC)",105 % of control
same,T/C,"dose: 200.0 mg/kg/injection, schedule: Q04DX002 (ip), vehicle: Klucel (hydroxypropylcellulose) (HPC)",102 % of control
same,T/C,"dose: 400.0 mg/kg/injection, schedule: Q04DX002 (ip), vehicle: Klucel (hydroxypropylcellulose) (HPC)",108 % of control

# Reference: PubChem BioAssay AID248 (DTP/NCI, 2004)
